2 compounds from ChEMBL document CHEMBL3351377, “Scaffold hopping towards potent and selective JAK3 inhibitors: discovery of novel C-5 substituted pyrrolopyrazines” (Bioorg Med Chem Lett, 2014) can be followed below.

For orientation: IC50 means the point on the concentration scale where inhibition reaches its midpoint. Low readings indicate inhibition by little substance, high ones a need for much substance.

The target in this experiment is Tyrosine-protein kinase JAK1 (Homo sapiens, UniProt P23458).

`CC[C@H](CO)Nc1ncc(-c2cnc3[nH]ccc3n2)c(N[C@H]2CCCN(S(C)(=O)=O)C2)n1` registered an IC50 of 0.287 µM. In turn, `CN1CCN(c2ncc(-c3cnc4[nH]ccc4n3)c(N[C@H]3CCCN(S(C)(=O)=O)C3)n2)CC1` had an IC50 of 0.189 µM.
